Experimental data taken from PubChem BioAssay (NCI).
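Five compound concentrations were applied to cells in 96-well plates for 48 hours; endpoints were derived by simple linear interpolation of the resulting dose-response curve. At the GI50, growth is halved. TGI marks complete inhibition of growth.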

Legend:
Test in all cases: inhibition of tumour cell growth, NCI panel, 48 h
ACHN renal = tested on: ACHN renal
CCRF-CEM leukemia = tested on: CCRF-CEM leukemia
HL-60(TB) leukemia = tested on: HL-60(TB) leukemia
HOP-92 NSCLC = tested on: HOP-92 NSCLC
MOLT-4 leukemia = tested on: MOLT-4 leukemia
NCI-H226 lung = tested on: NCI-H226 lung
OVCAR-3 ovarian = tested on: OVCAR-3 ovarian
SF-295 CNS = tested on: SF-295 CNS
SK-MEL-5 melanoma = tested on: SK-MEL-5 melanoma
SN12C renal = tested on: SN12C renal

Row | SMILES | TGI (ACHN renal) | TGI (CCRF-CEM leukemia) | TGI (HL-60(TB) leukemia) | TGI (HOP-92 NSCLC) | TGI (MOLT-4 leukemia) | TGI (NCI-H226 lung) | TGI (OVCAR-3 ovarian) | TGI (SF-295 CNS) | TGI (SK-MEL-5 melanoma) | TGI (SN12C renal) | GI50 (ACHN renal) | GI50 (HL-60(TB) leukemia) | GI50 (HOP-92 NSCLC) | GI50 (MOLT-4 leukemia) | GI50 (NCI-H226 lung) | GI50 (OVCAR-3 ovarian) | GI50 (SF-295 CNS) | GI50 (SK-MEL-5 melanoma) | GI50 (SN12C renal) | GI50 (CCRF-CEM leukemia)
1 | C[C@]12C/C(=C/O)C(=O)C(O)=C1CC[C@@H]1C2CC[C@@]2(C)C1CC[C@@H]2O (some centres not stated) | 72.2 µM | 47.5 µM | 41.8 µM | 46.4 µM | 66.5 µM | 36.8 µM | 44.4 µM | 72.5 µM | 42.9 µM | 61.1 µM | – | – | – | – | – | – | – | – | – | –
2 | [2H]c1nc(=Nc2cc(NC(=O)C=C)c(N(C)CCN(C)C)cc2OC)[nH]c(-c2cn(C([2H])([2H])[2H])c3ccccc23)c1[2H] | 1.65 µM | – | 2.5 µM | 2.45 µM | 2.86 µM | 26 µM | 2.83 µM | 4.5 µM | 3 µM | 2.71 µM | 0.0836 µM | 0.848 µM | 1.04 µM | 1.14 µM | 2.45 µM | 1.18 µM | 1.97 µM | 1.64 µM | 1.18 µM | –
3 | Cc1c2ccncc2c(C)c2c1[nH]c1ccc(O)c(OCC(F)(F)F)c12 | – | 7.18 µM | 11.6 µM | 16.5 µM | 6.04 µM | 20.1 µM | 19 µM | 14.8 µM | 7.5 µM | 20.8 µM | – | – | – | – | – | – | – | – | – | –
4 | Cc1cccc(N=Nc2ccc(N=Nc3c(O)ccc4ccccc34)cc2C)c1 | > 100 µM | > 100 µM | > 100 µM | > 100 µM | > 100 µM | > 100 µM | > 100 µM | > 100 µM | > 100 µM | – | – | – | – | – | – | – | – | – | – | –
5 | N.N.N.N.N.O=S(=O)([O-])S(=O)(=O)[O-].[Co+3] | > 100 µM | > 100 µM | > 100 µM | > 100 µM | > 100 µM | – | > 100 µM | > 100 µM | > 100 µM | > 100 µM | > 100 µM | > 100 µM | > 100 µM | > 100 µM | – | > 100 µM | > 100 µM | > 100 µM | > 100 µM | > 100 µM
6 | c1cnn2ncc(-c3ccnc(Nc4ccc5c(c4)OCCO5)n3)c2c1 | > 25 µM | > 25 µM | 0.155 µM | 0.162 µM | 0.622 µM | – | 0.142 µM | 0.987 µM | 0.632 µM | > 25 µM | 0.0549 µM | 0.0423 µM | 0.0593 µM | 0.0664 µM | – | 0.0548 µM | 0.0799 µM | 0.0651 µM | 0.0875 µM | 0.0879 µM
7 | O=[N+]([O-])c1ccc(-c2cc3c(Nc4ccc(Cl)c(C(F)(F)F)c4)ncnc3s2)cc1 | 7.6 µM | > 100 µM | 3.62 µM | 4.95 µM | – | > 100 µM | > 100 µM | 6.75 µM | 2.58 µM | > 100 µM | 2.42 µM | 0.906 µM | 0.963 µM | – | 2.89 µM | 0.605 µM | 1.21 µM | 1.13 µM | 1.16 µM | 1.29 µM
8 | CC(=Nc1ccc(S(N)(=O)=O)cc1)c1c(O)[nH]c2ccccc12 | > 25 µM | > 25 µM | > 25 µM | > 25 µM | > 25 µM | > 25 µM | > 25 µM | > 25 µM | > 25 µM | > 25 µM | > 25 µM | > 25 µM | > 25 µM | > 25 µM | > 23.6 µM | > 25 µM | > 25 µM | > 25 µM | > 25 µM | > 25 µM
9 | CC(=O)n1c(=O)c2cc3c(=O)n(-c4cccc(C#N)c4)c(=O)c3cc2c1=O | > 100 µM | > 100 µM | > 100 µM | > 100 µM | – | > 100 µM | > 100 µM | > 100 µM | > 100 µM | > 100 µM | – | – | – | – | – | – | – | – | – | –
10 | c1ccc2[nH]c(CNc3ccc(C4C[Se]N=N4)cc3)nc2c1 (configuration not stated) | > 100 µM | 82.5 µM | 77.7 µM | > 100 µM | 40.5 µM | – | 96.9 µM | 92.3 µM | 46.4 µM | > 100 µM | – | – | – | – | – | – | – | – | – | –
11 | O=C(NCCN1CCNCC1)c1ccc(Nc2nc3ccccc3c3occc23)cc1 | 36 µM | 28.5 µM | 33.5 µM | 15.8 µM | 36.9 µM | – | 80.1 µM | 30.5 µM | 13.7 µM | 34.9 µM | 20.1 µM | 17.6 µM | 1.24 µM | 20.4 µM | – | 14.5 µM | 10.9 µM | 3.39 µM | 18.2 µM | 10.3 µM
12 | N#C/C(=C1\SC(N=Nc2ccc(Cl)cc2)C(=O)N1c1ccccc1)c1nc2ccccc2[nH]1 (configuration not stated) | > 100 µM | 47.4 µM | > 100 µM | 51.9 µM | – | 77.2 µM | 69 µM | 58.7 µM | > 100 µM | > 100 µM | – | – | – | – | – | – | – | – | – | –
13 | CN(C)C(=S)Nc1nnc(Nc2ccccc2)s1 | > 100 µM | > 100 µM | > 100 µM | > 100 µM | > 100 µM | > 100 µM | > 100 µM | – | > 100 µM | > 100 µM | – | – | – | – | – | – | – | – | – | –
14 | Cc1nc(-c2cccnc2)sc1C(=O)/C=C/c1cccc([N+](=O)[O-])c1 | – | > 100 µM | > 100 µM | > 100 µM | > 100 µM | > 100 µM | > 100 µM | > 100 µM | > 100 µM | > 100 µM | – | – | – | – | – | – | – | – | – | –
15 | CC1=NN(C(=O)c2ccncc2)C(=O)C1N=Nc1ccc(F)cc1 (configuration not stated) | > 100 µM | – | > 100 µM | > 100 µM | – | > 100 µM | > 100 µM | > 100 µM | > 100 µM | > 100 µM | – | – | – | – | – | – | – | – | – | –
16 | O=C1CNS(=O)(=O)N1 | – | > 100 µM | > 100 µM | > 100 µM | > 100 µM | > 100 µM | > 100 µM | > 100 µM | – | > 100 µM | – | – | – | – | – | – | – | – | – | –
17 | Nc1ccccc1C(=O)C(Br)C(Br)c1ccc2c(c1)OCO2 (configuration not stated) | 51 µM | > 100 µM | > 100 µM | 39.5 µM | > 100 µM | 52.2 µM | 36.1 µM | > 100 µM | – | 72.5 µM | – | – | – | – | – | – | – | – | – | –
18 | O=C1c2cccc3cccc(c23)C(=O)N1O | > 100 µM | > 100 µM | > 100 µM | 94.5 µM | > 100 µM | – | > 100 µM | > 100 µM | > 100 µM | > 100 µM | – | – | – | – | – | – | – | – | – | –
